# Data reported in US20240207258A1, “HETEROCYCLIC PDK1 INHIBITORS FOR USE TO TREAT CANCER” (Viracta Therapeutics, Inc., priority 2015, published 2024).
# Legend:
# [1] = system: A20; test: MTS cell proliferation assay, A20; assay type: cell-based, murine; conditions: Mus musculus; A20, 72 hr
# Description: (§1) Cell proliferation was measured using the CellTiter 96 Aqueous Non-Radioactive Cell Proliferation Assay (Promega). The CellTiter 96® AQueous Assay is composed of solutions of a tetrazolium compound [3-(4,5-dimethylthiazol-2-yl)-5-(3-carboxymethoxyphenyl)-2-(4-sulfophenyl)-2H-tetrazolium, inner salt; MTS] and an electron coupling reagent (phenazine methosulfate) PMS. MTS is bioreduced by cells into a formazan product that is soluble in tissue culture medium. The absorbance of the formazan product at 490 nm can be measured directly from assay plates without additional processing. The quantity of formazan product as measured by the amount of 490 nm absorbance is directly proportional to the number of living cells in culture. Cells were seeded into 96-well or 384-well clear plates in a volume of 200 μL (96-well) or 50 μL (384-well) at optimized densities ranging from 1,000 to 40,000 cells per well for 96-well plates or 1,200 to 25,000 cells per well for 384-well plates depending on cell-line. After 4-6 hr recovery, serially diluted compounds in DMSO were added to the cells using (0.1% v/v final DMSO concentration). Cells were then grown at 37° C. in a humidified incubator with 5% CO2 for 72 hr. A 20:1 [3-(4,5-dimethylthiazol-2-yl)-5-(3-carboxymethoxyphenyl)-2-(4-sulfophenyl)-2H-tetrazolium](MTS):phenazine methosulfate (PMS) solution in DPBS was made immediately before use, added to each well, and cells were incubated for 1.5 hr at 37° C. The absorbance at 490 nm was then measured using a platereader. Absorbance values were normalized as percent of control (cells incubated in the presence of 0.1% v/v DMSO). Sigmoidal dose-response curves were plotted using log(inhibitor) vs. response—Variable slope (four parameters) model with a top value constrained to 100% (GraphPad Prism version 6.00 for Windows, GraphPad Software, La Jolla California USA). […] Curves for compounds that reached a plateau were matched exactly to the measurement points. […] To determine potential of compounds of the invention to affect viability of hematological cancers, cell lines representing various tumor types were selected and tested. Human cell lines tested were: MOLM-13 (acute myeloid leukemia (AML)), MV4-11 (AML), U-2932 (ABC-diffuse large B cell lymphoma), U-937 (histiocytic lymphoma), U-266 (multiple myeloma), RPMI-8226 (multiple myeloma), CMK (megakaryoblastic cell line), SU-DHL-4 (GCB-diffuse large B cell lymphoma), KG1 (AML), Mec-1 (chronic B-cell leukemia), MOLM-16 (AML), Jeko (B-cell lymphoma), WSU-DLCL2 (B-cell lymphoma), JJN3 (plasma cell leukemia), SU-DHL-6 (GCB-diffuse large B cell lymphoma), and Z-138 (mantle cell lymphoma). In addition, two murine cell lines were tested: A20 […].
# [2] = system: C1498; test: MTS cell proliferation assay, C1498; assay type: cell-based, murine; conditions: Mus musculus, C1498, 72 h, read-out: MTS proliferation assay (μM)
# Description: (§2) Cell proliferation was measured using the CellTiter 96 Aqueous Non-Radioactive Cell Proliferation Assay (Promega). […] MTS is bioreduced by cells into a formazan product that is soluble in tissue culture medium. The absorbance of the formazan product at 490 nm can be measured directly from assay plates without additional processing. The quantity of formazan product as measured by the amount of 490 nm absorbance is directly proportional to the number of living cells in culture. Cells were seeded into 96-well or 384-well clear plates in a volume of 200 μL (96-well) or 50 μL (384-well) at optimized densities ranging from 1,000 to 40,000 cells per well for 96-well plates or 1,200 to 25,000 cells per well for 384-well plates depending on cell-line. After 4-6 hr recovery, serially diluted compounds in DMSO were added to the cells using (0.1% v/v final DMSO concentration). Cells were then grown at 37° C. in a humidified incubator with 5% CO2 for 72 hr. A 20:1 [3-(4,5-dimethylthiazol-2-yl)-5-(3-carboxymethoxyphenyl)-2-(4-sulfophenyl)-2H-tetrazolium](MTS):phenazine methosulfate (PMS) solution in DPBS was made immediately before use, added to each well, and cells were incubated for 1.5 hr at 37° C. The absorbance at 490 nm was then measured using a platereader. Absorbance values were normalized as percent of control (cells incubated in the presence of 0.1% v/v DMSO). Sigmoidal dose-response curves were plotted using log(inhibitor) vs. response—Variable slope (four parameters) model with a top value constrained to 100% (GraphPad Prism version 6.00 for Windows, GraphPad Software, La Jolla California USA). […] To determine potential of compounds of the invention to affect viability of hematological cancers, cell lines representing various tumor types were selected and tested. […] In addition, two murine cell lines were tested: A20 […].
# [3] = system: Jeko; test: MTS cell proliferation assay, Jeko; assay type: cell-based; conditions: Homo sapiens, 72 hr
# Description: as §1
# [4] = system: P-AKT; test: Western blot, AKT phosphorylation in A20 cells; assay type: cell-based, murine
# Description: For phosphoprotein analyses, cells were seeded into 10 cm petri dishes (10×10^6 cells/dish) in media supplemented with 10% FBS and penicillin/streptomycin. After cells recovered for 1 hr at 37° C., compounds were added in DMSO (0.1% final) and incubated for 4 or 24 hr at 37° C. Cells were then harvested by centrifugation and washed with cold PBS. Cell pellets were resuspended in cell extraction buffer (Invitrogen) supplemented with 2×Halt™ protease and phosphatase inhibitor cocktail (Thermo Scientific), 2 mM sodium orthovanadate, 10 mM EDTA and 4 mM PMSF. Samples were lysed by sonication and incubated on ice for 30 min. Cell debris was removed by centrifugation and protein concentrations were determined using the BCA Protein Assay Kit (Pierce). The clarified lysate was diluted in LDS sample buffer with reducing agent (Life Technologies). […] Gels were run at 110 V and proteins were transferred to a PVDF membrane. Membranes were blocked in TBS blocking buffer (Li-Cor Biosciences) for 1 hr. Primary antibodies (Cell Signaling, Sant Cruz Biotechnology) were added (1:1,000 dilution) in blocking buffer with 0.1% Tween-20 and 1:20,000 dilution of β-actin antibody and incubated for 14 hr at 4° C. Blots were washed in TBS-T. Label-conjugated goat anti-rabbit secondary antibody (IRdye® 800CW; Li-Cor Biosciences) was added in blocking buffer with 0.1% Tween-20 and 0.02% SDS and incubated for 1 hr. After washing in TBS-T followed by TBS, membranes were scanned on an Odyssey imaging system (Li-Cor Biosciences). Bands were quantitated using ImageJ.
# [5] = system: U-2932; test: MTS cell proliferation assay, U-2932; assay type: cell-based; conditions: Homo sapiens, U2932; U-2932, 72 hr
# Description: as §1
# [6] = system: MV4-11; test: MTS cell proliferation assay, MV4-11; assay type: cell-based, human; conditions: Homo sapiens, MV4-11, 72 h, read-out: MTS proliferation assay (μM)
# Description: as §2
# [7] = system: MV4-11 cells; test: Induction of apoptosis (Annexin V / propidium iodide flow cytometry); assay type: cell-based, human
# Description: Cells were seeded in a six-well tissue culture plate in 3 mL complete growth medium (3×10^5 cells/well) and allowed to equilibrate for 1 hr at 37° C. in a humidified incubator with 5% CO2. DMSO (control), test compound, or doxorubicin was added to the wells (0.1% final DMSO concentration). Cells were returned to the incubator for 24 hrs. On the day of analysis 1×10^5 cells were labeled according to manufacturer's instructions and analyzed by flow cytometry (BD FACSCaalibur™, GH) to determine the percent of apoptotic cells (annexin V positive, AV+) and/or apoptotic dead cells (AV+ and propidium iodide positive (PI+)).
# [8] = system: P-PDK1; test: Pathway modulation in MV4-11 tumor xenografts, pPDK1; assay type: in vivo, mice; conditions: MV4-11 tumors, IP 50 mg/kg
# Description: MV4-11 cells propagated in vitro were implanted subcutaneous into the right flank of 9-week old female NCr nu/nu mice. On the day of implant, MV4-11 cells were harvested during log phase growth and resuspended in phosphate buffered saline (PBS) containing 50% Matrigel™ (BD Biosciences) at a concentration of 1×10^8 cells/mL. […] Two weeks after implantation, animals were assigned to individual groups of 3 animals with and average tumor volume of approximately 200 mm^3. […] Eight hours post-dose, full blood volume was collected by cardiac puncture under isoflurane anesthesia and tumors were excised and snapfrozen in liquid nitrogen and stored at −80° C. until further analysis. Tumors were pulverized in liquid nitrogen using a Biopulverizer and split into two sample tubes: one for Western blot analysis and one for analysis of compound levels by LC-MS/MS. […] For MS analysis, tumor samples were homogenized with a Virsonic 100 ultrasonic homogenizer. Each sample was first weighed, and then an appropriate volume of 20:80 methanol:water was added to make a 9 mL/gram sample. Samples were then homogenized on ice, and stored frozen until analysis. Standards were prepared in BALB/c mouse plasma or blank homogenized tumor tissue. Standards and samples were analyzed on a PE Sciex API4000 instrument and compound concentration was quantified and back-calculated to ng compound per g tumor tissue and converted to M concentration assuming 1 g tumor tissue equals 1 mL volume.
# [9] = system: RPMI-8226; test: MTS cell proliferation assay, RPMI-8226; assay type: cell-based; conditions: Homo sapiens; RPMI-8226, 72 hr
# Description: as §1
# [10] = system: Molm-13; test: MTS cell proliferation assay, Molm-13; assay type: cell-based; conditions: Homo sapiens; Molm-13, 72 hr
# Description: as §1
# [11] = system: hematologic tumor cell lines; test: MTS cell proliferation assay, panel of hematologic cancer cell lines; assay type: cell-based; conditions: 72 hrs, percent of control
# Description: as §1
# [12] = target: T1, Full-length phosphorylated PDK1 (Homo sapiens, UniProt O15530); test: FRET-based PIF-tide binding assay; conditions: 10 nM compound where stated, FIG. 13D
# T1 sequence (O15530 1-556): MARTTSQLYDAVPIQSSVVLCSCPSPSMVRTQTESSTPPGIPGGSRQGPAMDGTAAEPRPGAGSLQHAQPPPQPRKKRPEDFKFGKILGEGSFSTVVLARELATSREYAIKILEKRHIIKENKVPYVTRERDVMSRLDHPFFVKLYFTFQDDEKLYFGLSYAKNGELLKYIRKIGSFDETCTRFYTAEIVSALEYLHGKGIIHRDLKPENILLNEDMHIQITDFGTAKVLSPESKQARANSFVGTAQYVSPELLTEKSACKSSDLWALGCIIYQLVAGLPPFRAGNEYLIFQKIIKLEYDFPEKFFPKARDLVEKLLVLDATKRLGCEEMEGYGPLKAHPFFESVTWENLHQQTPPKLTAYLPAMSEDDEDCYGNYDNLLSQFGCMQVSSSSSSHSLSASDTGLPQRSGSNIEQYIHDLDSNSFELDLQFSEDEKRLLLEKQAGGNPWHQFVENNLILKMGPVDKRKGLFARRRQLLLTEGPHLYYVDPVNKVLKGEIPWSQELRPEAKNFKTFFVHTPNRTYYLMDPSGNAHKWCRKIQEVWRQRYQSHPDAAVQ
compound,measurement,setting,value
"CNc1nc(-c2ccc3c(N)n[nH]c3c2)cc(N2C[C@@H](C(=O)NC3CCCCC3)CC[C@H]2C)n1 [GSK2334470, reference compound]",EC50,[1],490 nM
same,EC50,[2],0.358 µM
same,EC50,[3],2250 nM
same,P-AKT levels,[4],barely affected
same,EC50,[5],986 nM
same,EC50,[6],0.105 µM
same,apoptosis at 100 nM,[7]; 100 nM,no evidence of apoptosis
same,concentration inducing apoptosis,[7]; 24 hrs,> 300 nM
same,pathway modulation and tumor exposure,[8],comparable to that of 50 mg/kg GDC0941 and 1 mg/kg Compound 1 or Compound 2
same,EC50,[9],2900 nM
same,EC50,[10],360 nM
"COc1cccc2c1C(=O)c1c(O)c3c(c(O)c1C2=O)C[C@@](O)(C(=O)CO)C[C@@H]3O[C@H]1C[C@H](N)[C@H](O)[C@H](C)O1 [doxorubicin, reference compound]",plateau of growth inhibition curve at higher concentrations,[11],< 20%
"CN[C@@H]1C[C@H]2O[C@@](C)([C@@H]1OC)n1c3ccccc3c3c4c(c5c6ccccc6n2c5c31)C(=O)NC4 [staurosporine, reference compound]",FRET between PDK1 and PIF-tide,[12],does not inhibit FRET
